Measurements taken from patent US7351708B2, “Pyrrolo [2,3-b] pyridine derivatives” (Hoffmann-La Roche Inc., priority 2005, dated 2008).

The compounds below were run against T1, histamine 3 receptor (H3R) (Homo sapiens, UniProt Q9Y5N1) (assay: Binding assay with 3H-(R)α-Methylhistamine (competition binding, membranes of the human HR3-CHO cell line)). Settings: competition against 3H(R)α-Methylhistamine (1 nM), Ki calculated from IC50 by Cheng-Prusoff.
T1 construct: expressed in transfected cells; host or cells: CHO cells (HR3-CHO cell line), membranes
Method: Binding Assay with ^3H—(R)α-Methylhistamine
Saturation binding experiments were performed using HR3-CHO membranes prepared as described in Takahashi, K, Tokita, S., Kotani, H. (2003) J. Pharmacol. Exp. Therapeutics 307, 213-218.
An appropriate amount of membrane (60 to 80 μg protein/well) was incubated with increasing concentrations of ^3H(R)α-Methylhistamine di-hydrochloride (0.10 to 10 nM). Non specific binding was determined using a 200 fold excess of cold (R)α-Methylhistamine dihydrobromide (500 nM final concentration). The incubation was carried out at room temperature (in deep-well plates shaking for three hours). The final volume in each well was 250 μl. The incubation was followed by rapid filtration on GF/B filters (pre-soaked with 100 μl of 0.5% PEI in Tris 50 mM shaking at 200 rpm for two hours). The filtration was made using a cell-harvester and the filter plates were then washed five times with ice cold washing buffer containing 0.5 M NaCl. After harvesting, the plates were dried at 55° C. for 60 min, then we added scintillation fluid (Microscint 40, 40 microl in each well) and the amount of radioactivity on the filter was determined in Packard top-counter after shaking the plates for two hours at 200 rpm at room temperature.
Binding Buffer: 50 mM Tris-HCl pH 7.4 and 5 mM MgCl2x 6H2O pH 7.4. Washing Buffer: 50 mM Tris-HCl pH 7.4 and 5 mM MgCl2x6H2O and 0.5 M NaCl pH 7.4.
Indirect measurement of affinity of H3R inverse agonists: twelve increasing concentrations (ranging from 10 μM to 0.3 nM) of the selected compounds were always tested in competition binding experiments using membrane of the human HR3-CHO cell line. An appropriate amount of protein, e.g. approximately 500 cpm binding of RAMH at Kd, were incubated for 1 hour at room temperature in 250 μl final volume in 96-well plates in presence of ^3H(R)α-Methylhistamine (1 nM final concentration=Kd). […]
All compounds were tested at a single concentration in duplicates. […] Ki's were calculated from IC50 based on Cheng-Prusoff equation (Cheng, Y, Prusoff, WH (1973) Biochem Pharmacol 22, 3099-3108).

T1 sequence (Q9Y5N1 whole entry): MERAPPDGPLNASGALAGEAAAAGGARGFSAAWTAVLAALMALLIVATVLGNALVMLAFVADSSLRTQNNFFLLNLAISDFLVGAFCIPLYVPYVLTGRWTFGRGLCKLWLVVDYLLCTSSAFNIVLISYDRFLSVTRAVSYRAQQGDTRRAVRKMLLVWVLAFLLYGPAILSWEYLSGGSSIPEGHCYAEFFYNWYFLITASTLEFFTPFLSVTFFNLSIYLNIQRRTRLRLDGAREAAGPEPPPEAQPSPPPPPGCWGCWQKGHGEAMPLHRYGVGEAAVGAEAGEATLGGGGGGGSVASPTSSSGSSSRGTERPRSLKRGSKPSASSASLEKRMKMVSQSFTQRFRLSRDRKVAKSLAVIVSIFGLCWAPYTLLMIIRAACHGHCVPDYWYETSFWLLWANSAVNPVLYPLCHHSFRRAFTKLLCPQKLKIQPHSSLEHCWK

Ki	SMILES
0.0227 µM	O=C(NC1CCCCC1)c1cc2ccc(N3CCN(C4CCCC4)CC3)nc2[nH]1 [Example 4, 6-(4-cyclopentyl-piperazin-1-yl)-1H-pyrrolo[2,3-b]pyridine-2-carboxylic acid cyclohexylamide]
0.0831 µM	O=C(c1cc2ccc(N3CCN(C4CCCC4)CC3)nc2[nH]1)N1CCC(O)C1 (stereo not drawn) [Example 8, [6-(4-cyclopentyl-piperazin-1-yl)-1H-pyrrolo[2,3-b]pyridin-2-yl]-(3-hydroxy-pyrrolidin-1-yl)-methanone]
0.0484 µM	O=C(c1cc2ccc(N3CCN(C4CCCC4)CC3)nc2[nH]1)N1CCCCC1 [Example 1, [6-(4-Cyclopentyl-piperazin-1-yl)-1H-pyrrolo[2,3-b]pyridin-2-yl]-piperidin-1-yl-methanone]
